Data on 2 compounds can be found in patent publication US11028074B2, “CD73 inhibitors” (Eli Lilly and Company, priority 2018, dated 2021).

The target in experiment [1] is T1, CD73 (Homo sapiens, UniProt P21589).
T1 sequence (P21589 27-549): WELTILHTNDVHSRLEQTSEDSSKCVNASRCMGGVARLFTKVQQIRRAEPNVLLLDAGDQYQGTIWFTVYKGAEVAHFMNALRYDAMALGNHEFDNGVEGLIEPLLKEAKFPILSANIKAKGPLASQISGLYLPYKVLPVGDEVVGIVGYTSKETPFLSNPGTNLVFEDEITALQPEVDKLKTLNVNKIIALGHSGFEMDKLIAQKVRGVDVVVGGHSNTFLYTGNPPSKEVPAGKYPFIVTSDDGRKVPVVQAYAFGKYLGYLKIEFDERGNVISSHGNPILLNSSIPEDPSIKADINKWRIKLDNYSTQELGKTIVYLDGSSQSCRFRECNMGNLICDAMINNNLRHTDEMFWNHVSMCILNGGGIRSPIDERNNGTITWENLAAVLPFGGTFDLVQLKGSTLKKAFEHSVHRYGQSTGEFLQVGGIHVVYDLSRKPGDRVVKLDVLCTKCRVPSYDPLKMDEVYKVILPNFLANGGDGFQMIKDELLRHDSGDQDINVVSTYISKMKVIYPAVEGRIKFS
Nature of the experiment: LC/MS Based Assay for Measuring CD73 Activity in Human Serum. It counts as biochemical. Also noted: from tissue; host or cells: normal human serum. The conditions noted are these: concentrations corrected with the fraction unbound, read-out: EC50, inhibition of CD73 activity in human serum. How it is done:
Fresh normal human blood is centrifuged at 1,500 g for 15 minutes at room temperature, and the upper fraction containing serum is collected. […] After incubation on ice for 60 min, […] (50 uM) is added to each well in the plate, and the plate is incubated at room temperature for 15 min. The plate is then placed on dry ice with addition of 200 uL/well of 17.3 TCA followed by shaking at 26 fps for 3 min with a plate-shaking machine (Qiagen). The plate is then centrifuged at 2940 g for 20 min at 4° C. […] After further centrifugation at 2940 g for 20 min at 4° C., 200 ul/well of the supernatant is used for analysis of ^13C10-^15N5-adenosine, ^13C10-^15N5-inosine and ^15N5-hypoxanthine by LC/MS as described above. For EC50 calculations, the concentrations of the CD73 inhibitor in the serum are corrected with the fraction unbound (%) derived from in silico models or experimentally.

The target in experiment [2] is T2, human CD73 (Homo sapiens, UniProt P21589).
T2 construct: human CD73 (amino acids 1-547); 6-His (C); made in house; host or cells: HEK293F (transient transfection)
T2 sequence (P21589 27-547): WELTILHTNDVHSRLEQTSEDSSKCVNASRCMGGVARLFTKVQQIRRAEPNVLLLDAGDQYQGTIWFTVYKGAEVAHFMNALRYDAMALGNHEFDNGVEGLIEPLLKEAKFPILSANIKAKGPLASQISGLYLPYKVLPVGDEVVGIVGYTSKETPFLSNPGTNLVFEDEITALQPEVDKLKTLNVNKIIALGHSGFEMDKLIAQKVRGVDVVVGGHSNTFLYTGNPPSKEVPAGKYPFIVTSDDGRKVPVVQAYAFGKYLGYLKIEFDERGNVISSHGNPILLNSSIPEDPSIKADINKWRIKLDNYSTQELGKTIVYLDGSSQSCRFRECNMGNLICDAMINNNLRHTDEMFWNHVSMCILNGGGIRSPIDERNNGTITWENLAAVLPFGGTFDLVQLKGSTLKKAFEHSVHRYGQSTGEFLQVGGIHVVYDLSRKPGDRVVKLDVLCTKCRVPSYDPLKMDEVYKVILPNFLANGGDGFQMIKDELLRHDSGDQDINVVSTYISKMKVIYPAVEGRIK
Nature of the experiment: Human CD73 Biochemical Assay. The note with it: 2 μM AMP, 50 pM CD73 protein, 30 minutes at RT.
Protocol: An Agilent 300 RapidFire automated extraction system (Agilent, Santa Clara, Calif.) is used with three HPLC quaternary pumps, coupled to an Sciex 6500 triple quadrupole mass spectrometer (AB Sciex, Framingham, Mass.) with an electrospray ionization (ESI) interface source.
Solvent A, used for sample loading and washing, is 50 mM ammonium formate, pH 4.0 containing 5% (v/v) ACN. Solvent B, used for sample elution, is 0.3% formic acid+2% ammonium hydroxide in 70% ACN/30% MeOH. Samples are sequentially analyzed by aspirating 10 μL onto the collection loop under vacuum directly from multiwell plates.
Equip the triple quadrupole mass spectrometer with an electrospray ionization (ESI) source and monitor analytes using selected reaction monitoring (SRM) in positive mode (M+H)+. […] Calculate area ratio values for adenosine and adenosine monophosphate using 13C5 Adenosine and 15N5 AMP as internal standards, respectively.
The purpose of this assay is to identify and characterize inhibitors of CD73 enzyme activity. […] Adenosine- and adenosine ribose-^13C5 (internal standard) levels are determined utilizing mass spectrometry as described above. Use signal ratio (adenosine peak integration/adenosine internal standard peak integration) to quantitate each reaction. […] For screening purposes, test each compound at 50 μM in 1% DMSO.

Experiment [3] concerns the target T2, human CD73. The experiment in a line: Human CD73 Mechanism Assay. It counts as biochemical. The note with it: varying inhibitor and AMP concentrations 0.023 to 50 μM, mixed-model fit.
Experiment [4] addresses T1, CD73. The experiment in a line: Calu6 Human Cell Assay. It counts as cell-based. The conditions noted are these: Calu6 cells, 50 μM AMP premix, 60 minutes at room temperature. How it is done:
The purpose of this assay is to test compounds against CD73 in a cell-based assay. […] Plates are incubated at room temperature for 60 minutes.

For experiment [5], the system named is EG7 (lymphoma), MC38 (colon), AT-3 (breast) and B16F10 (melanoma) tumor cells. The conditions noted are these: syngeneic mice injected subcutaneously with EG7, MC38, AT-3 and B16F10 tumor cells; cited from earlier work.

As for `CC[C@H]1C[C@@H]1c1cc(-c2c[nH]c(=O)[nH]c2=O)nnc1C` [Example 1, 5-[5-[(1S,2S)-2-Ethylcyclopropyl]-6-methyl-pyridazin-3-yl]-1H-pyrimidine-2,4-dione], the EC50 in experiment [1] amounted to 100 nM. Also, the results for the IC50 in experiment [2] and in experiment [4] were 43 nM and 28 nM, respectively. Also, the “mechanism of action (type of inhibition)” value in experiment [3] was “uncompetitive inhibitor”.
For `Nc1ncnc2c1ncn2[C@@H]1O[C@H](COP(=O)(O)CP(=O)(O)O)[C@@H](O)[C@H]1O` [α,β-methyleneadenosine 5′-diphosphate], the tumor growth result in experiment [5] is “reduce tumor growth”.

In general, EC50 refers to the concentration at which the effect is half-maximal. In general, IC50 refers to the point on the concentration scale where inhibition reaches its midpoint.
